For one compound, Km and Vmax results are on record in patent US7655453B2, “Recombinant Candida rugosa lipases” (Academia Sinica, priority 2001, dated 2010).

Holding throughout (format): biochemical
Experiment [1] has as its system Candida rugosa lipase 4 chimera Trx-LIP4/lid3 (lid region residues 63-94 of LIP4 exchanged with that of LIP3; thioredoxin fusion). The experiment can be described thus: Kinetic parameters of hydrolysis of cholesteryl linoleate by Trx-LIP4/lid3. The following applies: 37° C., pH 7.0; Trx-LIP4/lid3 58 nM; average of three independent experiments. The text has this:
(§1) Construction of expression vectors The E. coli expression vectors pET23a-LIP4-S19 and pET23a-trx-LIP4-S19 were constructed as described in Tang et al. (2000) Protein Exp. Purif. 20: 308-313. Open-reading frames of LIP1, LIP2, LIP3, and LIP5 without the leader sequence were obtained by reverse transcription-polymerase chain reaction (RT-PCR). See Longhi et al. (1992) Biochim. Biophy. […] The chimeric DNA sequences were constructed by replacing the SphI(184)-BstXI(304) restriction DNA fragment of LIP4 with the corresponding fragments of LIP1, LIP2, LIP3, or LIP5, respectively. The resulting sequences encode mature chimeric C. rugosa lipases, denoted as TrX-LIP4/lid1, TrX-LIP4/lid2, TrX-LIP4/lid3, and TrX-LIP4/lid5, and were confirmed by DNA sequencing.
(§2) Preparation of recombinant LIP4 from E. coli. E. coli strain AD494(DE3) (Novagen, Milwaukee, Wis.) harboring recombinant plasmid was grown overnight at 37° C. in Luria-Bertani (LB) broth supplemented with 50 μg/mL ampicillin and 15 μg/mL kanamycin. The cells were then diluted 20-fold into fresh medium and incubated with shaking at 25° C. After adding IPTG to give a final concentration of 0.05 mM, the cells were incubated at 10° C. until OD600 reached 1.0.
(§3) Purification of recombinant LIP4. After induction, the AD494(DE3) transformants were harvested by centrifugation at 4000 g and 4° C. for 10 min. […]

In experiment [2] the test system is Candida rugosa lipase 4 chimera Trx-LIP4/lid5 (lid region residues 63-94 of LIP4 exchanged with that of LIP5; thioredoxin fusion). Description: Kinetic parameters of hydrolysis of cholesteryl linoleate by Trx-LIP4/lid5. The following applies: 37° C., pH 7.0; Trx-LIP4/lid5 66 nM; average of three independent experiments.
Description: as §1, §2, §3

Experiment [3] deals with Candida rugosa lipase 4 chimera Trx-LIP4/lid2 (lid region residues 63-94 of LIP4 exchanged with that of LIP2; thioredoxin fusion). The experiment can be described thus: Kinetic parameters of hydrolysis of cholesteryl linoleate by Trx-LIP4/lid2. The following applies: 37° C., pH 7.0; Trx-LIP4/lid2 86 nM; average of three independent experiments.
Description: as §1, §2, §3

Experiment [4] concerns the target Candida rugosa lipase 4 (LIP4), native, recombinant (Diutina rugosa, UniProt P32948). Description: Kinetic parameters of hydrolysis of cholesteryl linoleate by LIP4. The following applies: 37° C., pH 7.0; LIP4 39 nM; average of three independent experiments.
Description: as §1, §2, §3

In experiment [5] the test system is Candida rugosa lipase 4 chimera Trx-LIP4/lid1 (lid region residues 63-94 of LIP4 exchanged with that of LIP1; thioredoxin fusion). The experiment can be described thus: Kinetic parameters of hydrolysis of cholesteryl linoleate by Trx-LIP4/lid1. Conditions: 37° C., pH 7.0; Trx-LIP4/lid1 11 nM; average of three independent experiments.
Description: as §1, §2, §3

Sequence of Candida rugosa lipase 4 (LIP4), native, recombinant (P32948 3-549, looked up, natural form): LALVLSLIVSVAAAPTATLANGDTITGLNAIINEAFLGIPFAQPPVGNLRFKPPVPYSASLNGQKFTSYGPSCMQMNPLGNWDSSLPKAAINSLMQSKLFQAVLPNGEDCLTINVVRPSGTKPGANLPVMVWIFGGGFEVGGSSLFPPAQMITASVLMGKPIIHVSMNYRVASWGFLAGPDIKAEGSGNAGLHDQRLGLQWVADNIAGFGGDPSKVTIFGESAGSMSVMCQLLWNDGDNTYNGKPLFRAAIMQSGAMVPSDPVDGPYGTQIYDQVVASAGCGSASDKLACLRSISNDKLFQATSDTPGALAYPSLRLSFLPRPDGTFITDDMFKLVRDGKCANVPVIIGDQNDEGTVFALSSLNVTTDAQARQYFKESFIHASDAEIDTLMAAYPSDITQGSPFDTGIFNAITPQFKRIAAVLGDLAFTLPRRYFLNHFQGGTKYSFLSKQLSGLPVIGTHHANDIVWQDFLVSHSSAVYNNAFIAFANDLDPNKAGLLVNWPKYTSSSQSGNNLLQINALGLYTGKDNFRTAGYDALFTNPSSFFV

Broadly, the Km is the concentration of substrate that gives half-maximal velocity. For the compound `CCCCC/C=C\C/C=C\CCCCCCCC(=O)O[C@H]1CC[C@@]2(C)C(=CC[C@H]3[C@@H]4CC[C@H]([C@H](C)CCCC(C)C)[C@@]4(C)CC[C@@H]32)C1` [cholesteryl linoleate], the Km in experiment [1] amounted to 46 ± 1 µM; in experiment [2] it was 34 ± 1 µM; in experiment [3], 74 ± 3 µM; in experiment [4], 41 ± 5 µM; in experiment [5] it was 103 ± 5 µM. In addition, the Vmax in experiment [1] is 231 ± 14 10^−3 μmol/min/mg; in experiment [2], 70 ± 4.8 10^−3 μmol/min/mg; in experiment [3], 1851 ± 24 10^−3 μmol/min/mg; in experiment [5], 28 ± 1 10^−3 μmol/min/mg.
